1 molecule from article PMC11007773 (ACS Omega, 2024) can be followed below.

The term Kd denotes the constant that tells how readily two partners part at equilibrium. A lower Kd goes with tighter binding.

This test has as its target Human transferrin (Htf) (Homo sapiens, UniProt P02787). As to the kind of experiment: isothermal titration calorimetry. The class given is binding. In general terms: Isothermal titration calorimetry measures the heat released or taken up as one component is titrated into another.

The structures appear in SMILES notation.

Chain of Human transferrin (Htf) (P02787 20-698): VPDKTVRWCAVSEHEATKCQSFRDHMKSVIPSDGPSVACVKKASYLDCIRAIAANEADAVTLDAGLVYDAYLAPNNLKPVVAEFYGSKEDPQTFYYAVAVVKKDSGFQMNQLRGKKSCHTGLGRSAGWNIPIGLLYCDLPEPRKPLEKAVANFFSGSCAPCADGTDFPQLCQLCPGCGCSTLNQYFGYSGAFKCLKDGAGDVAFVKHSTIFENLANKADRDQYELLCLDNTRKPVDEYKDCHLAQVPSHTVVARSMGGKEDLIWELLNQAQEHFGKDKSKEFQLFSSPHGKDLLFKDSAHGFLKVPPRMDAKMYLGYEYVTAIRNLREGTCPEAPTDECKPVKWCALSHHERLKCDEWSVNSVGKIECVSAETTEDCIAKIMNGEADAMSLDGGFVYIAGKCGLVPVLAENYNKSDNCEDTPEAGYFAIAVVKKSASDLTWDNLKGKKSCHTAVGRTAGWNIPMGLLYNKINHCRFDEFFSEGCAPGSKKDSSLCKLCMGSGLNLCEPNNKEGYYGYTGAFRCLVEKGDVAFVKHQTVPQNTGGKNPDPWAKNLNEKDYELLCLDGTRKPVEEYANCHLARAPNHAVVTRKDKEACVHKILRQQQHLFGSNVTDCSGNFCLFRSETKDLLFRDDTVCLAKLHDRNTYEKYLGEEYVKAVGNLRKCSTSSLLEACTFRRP

Regarding `O=c1oc2c(O)c(O)cc3c(=O)oc4c(O)c(O)cc1c4c23` [Ellagic acid], binding was put at a Kd of 1450 nM.
